Assay results from EP0688218B1, “INTERLEUKIN-1 INHIBITOR” (OTSUKA PHARMACEUTICAL CO., LTD., priority 1993, dated 1994).

Columns and labels:
IL-1α = experiment: Inhibition of LPS-stimulated IL-1α release in heparinized peripheral blood culture (ELISA); assay type: cell-based, human; conditions: Dose 3 x 10^-5 g/ml; 10% heparinized peripheral blood from healthy volunteer; LPS 3.3 µg/ml; 18 - 24 hours
Description: (§1) Method: A 10% heparinized prepheral blood from healthy volunteer, a test compound and lipopolysaccharide (LPS, 3.3 µg/ml) were suspended in RPMI-1640 medium supplemented with penicillin 100 units/ml and streptomycin […], and the mixture was incubated in a 5% CO2 atmosphere at 37°C for 18 - 24 hours. The supernatant of the culture was collected by centrifugation.
(§2) The IL-1α and IL-1β isolated from cells by stimulation with LPS were measured by enzyme-linked immunoassay (ELISA). That is, 96-well ELISA plate was coated with a mouse monoclonal antibody against human IL - 1α or human IL-1β, followed by blocking treatment, and thereto was added a test sample and it was subjected to reaction. […] After removing the unbound POD-conjugated antibody by washing, a substrate solution (containing ortho-phenylenediamine and hydrogen peroxide) was added and subjected to reaction, and thereafter, the absorbance at 492 nm was measured, and thereby the amounts of IL-1α and IL-1β were measured based on each standard curve. The ratio (%) of inhibition of IL-1 release was calculated by the following equation: IL-1 release inhibitory ratio (%) = 100 x (1-T/C) [formula] wherein T means the amount of IL-1 in the supernatant of culture incorporated with the test compound, and C means the amount of IL-1 in the supernatant of culture added only with the solvent.

IL-1β = experiment: Inhibition of LPS-stimulated IL-1β release in heparinized peripheral blood culture (ELISA); assay type: cell-based, human; conditions: Dose 3 x 10^-5 g/ml; 10% heparinized peripheral blood from healthy volunteer; LPS 3.3 µg/ml; 18 - 24 hours
Description: as §1, §2

SMILES	IL-1α release inhibitory ratio (IL-1α) [%]	IL-1β release inhibitory ratio (IL-1β) [%]
Cc1c(F)c(N2CCNC(C)C2)cc2c1c(=O)c(C(=O)O)cn2C1CC1 (stereo not shown) [Test compound 1, 7-(3-Methyl-1-piperazinyl)-1-cyclopropyl-6-fluoro-5-methyl-1,4-dihydro-4-oxoquinoline-3-carboxylic acid]	93	96
CC1CCc2c(N3CCC(O)CC3)c(F)cc3c(=O)c(C(=O)O)cn1c23 (stereo not shown) [Test compound 2, 9-Fluoro-8-(4-hydroxy-1-piperidinyl)-5-methyl-6,7-dihydro-1-oxo-1H,5H-benzo[ji]quinolidine-2-carboxylic acid]	82	78
